For one compound, MIC results are on record in ChEMBL document CHEMBL1255402, “Staphylococcal cassette chromosome mec-like element in Macrococcus caseolyticus” (2010).

What all share (format): functional
Conditions in all cases: Macrococcoides caseolyticum

For assay [1], the system named is Macrococcus caseolyticus. The assay is described as follows: Antimicrobial activity against multidrug-resistant Macrococcus caseolyticus JCSC7096 containing plasmid pMCCL2 which carries transposon containing (mecA(m)-mecR1(m)-mecI(m)-blaZ(m)) complex isolated from chicken by agar dilution method. Background: In agar dilution, organisms are placed on agar that contains the substance at set levels.

In assay [2] the test system is Macrococcus caseolyticus. Briefly: Antimicrobial activity against multidrug-resistant Macrococcus caseolyticus JCSC5402 containing plasmid pMCCL2 which carries transposon containing (mecA(m)-mecR1(m)-mecI(m)-blaZ(m)) complex isolated from chicken by agar dilution method.
For assay [3], the system named is Macrococcus caseolyticus. The assay is described as follows: Antimicrobial activity against Macrococcus caseolyticus ATCC 51834 by agar dilution method.
For assay [4], the system named is Macrococcus caseolyticus. Briefly: Antimicrobial activity against multidrug-resistant Macrococcus caseolyticus JCSC7528 containing plasmid pMCCL2 which carries transposon containing (mecA(m)-mecR1(m)-mecI(m)-blaZ(m)) complex isolated from chicken by agar dilution method.
In assay [5] the test system is Macrococcus caseolyticus. The assay is described as follows: Antimicrobial activity against Macrococcus caseolyticus ATCC 13548T by agar dilution method.
For assay [6], the system named is Macrococcus caseolyticus. Briefly: Antimicrobial activity against Macrococcus caseolyticus ATCC 29750 by agar dilution method.
For assay [7], the system named is Macrococcus caseolyticus. Briefly: Antimicrobial activity against Macrococcus caseolyticus ATCC 51835 by agar dilution method.

Values after ≈ are worked out from the molar mass of the structure shown.

Usually MIC stands for the least concentration at which growth counts as inhibited. On to `Cc1onc(-c2ccccc2)c1C(=O)N[C@@H]1C(=O)N2[C@@H]1SC(C)(C)[C@@H]2C(=O)O` [OXACILLIN], for which the MIC amounted to 64 mg/L (≈ 159 µM) against Macrococcus caseolyticus [1]; 128 mg/L (≈ 319 µM) in the assay on Macrococcus caseolyticus [2]; 0.125 mg/L (≈ 0.311 µM) against Macrococcus caseolyticus [3]; 32 mg/L (≈ 79.7 µM) against Macrococcus caseolyticus [4]; 0.125 mg/L (≈ 0.311 µM) with Macrococcus caseolyticus [5]; 0.125 mg/L (≈ 0.311 µM) against Macrococcus caseolyticus [6]. In the assay on Macrococcus caseolyticus [7], this compound had a minimal inhibitory concentration (MIC) of 0.25 mg/L (≈ 0.623 µM).
